Laboratory results published in patent US7445892B2, “Method of testing anticancer agent-sensitivity of tumor cells” (Eisai Co., Ltd., priority 2000, dated 2008).

System: HCT116-C9-C1
Assay: Gene expression analysis using GeneChip in E7070-resistant strain C9-C1
Type: cell-based, human
Details: resistant strain C9-C1, 8 μM, 12 hours
Protocol: E7070, or ER-35748 or ER-68487 represented by the structural formula shown below was added to the media of an E7070-susceptible strain HCT116-C9 and an E7070-resistant strain HCT116-C9-C1 at a concentration of 8 μM and the cells were cultured. Then, cells were recovered after 0, 3, 6 and 12 hours. Further, the cells were also cultured for 12 hours without adding the drug and recovered. Total RNA was extracted from these cells and subjected to the subsequent analyses. […] The stained GeneChip was scanned by using HP Argon Ion Laser Confocal Scanner (Hewlett Packard) to measure its fluorescence intensity. The fluorescence was measured at 570 nm by using an excitation light at 488 nm. The quantitative data analyses were all conducted by using GeneChip Software (Affymetrix). To quantify RNA, an average of “differences [(Perfect match hybridization signal)−(Mismatch signal)]” was obtained for each probe family. […] Two kinds of E7070-resistant strains (C9-C1 and another resistant strain (C9-C4) obtained in the same method as C9-C1) were treated with 8 μM of E7070 for 12 hours in the same manner as described above, and variations of the gene expression were analyzed by using GeneChip for the genes listed in Tables 1 and 2.

SMILES: NS(=O)(=O)c1ccc(S(=O)(=O)Nc2cccc3c(Cl)c[nH]c23)cc1 [E7070, N-(3-chloro-7-indolyl)-1,4-benzenedisulfonamide]
- variations of the gene expression for the genes listed in Tables 1 and 2: no gene that increased or decreased 1.8 times or more was observed
